Columns and labels:
[1] = system: Human Bronchial Epithelial Cells (HBECs); experiment: Effect of NRG1 isoforms on MUC5AC and MUC5B protein (goblet cell formation) in HBECs at air-liquid interface, immunohistochemistry; format: cell-based; conditions: HBECs at ALI, 7 days
Experimental: (§1) Human Bronchial epithelial cells (HBECs; Cambrex) were cultured in bronchial epithelial cell growth medium (BEGM; Cambrex) supplemented with the provided singlequots essentially as described in [Atherton et al, 2003]. For differentiation, cells were grown on 0.4 μm pore size, 12 mm TRANSWELL® inserts (Costar) at a cell density of 8.25×10^4 cells/insert in differentiation medium. Differentiation medium contained 50% BEGM and 50% Dulbeccos' modified Eagle's medium (DMEM) and was supplemented with 52 μg/ml bovine pituitary extract, 5 μg/ml insulin, 0.5 μg/ml hydrocortisone, 10 μg/ml transferrin, 0.5 μg/ml epinephrine 0.5 ng/ml human EGF, 50 μg/ml gentamicin and 50 nM retinoic acid. Cells were maintained submerged for 7 days then grown at air-liquid interface (ALI) for 7-14 days and medium was replenished every 2-3 days. Cells were treated with NRG1α or NRG1β1 (R&D SYSTEMS®) during the ALI culture period, added to the basolateral chamber of the TRANSWELL® inserts. At all stages cells were maintained at 37° C. in the presence of 5% CO2 in an air incubator.
After 7 days (unless otherwise stated) of differentiation at ALI, the apical surface of the HBECs was washed gently with PBS and fixed with neutral buffered formalin and wax embedded. Inserts were sectioned at 3 μm thickness and stained with either an anti-MUC5AC antibody (45M1; LABVISION®) or anti-MUC5B monoclonal antibodies using a DABMAP protocol on a VENTANA® XT immunostainer and counterstained with 1% alcian blue in 3% acetic acid, pH 2.5. The area of staining was assessed using a ZEISS® Axioplan 2 microscope (×10 magnification) with an Imaging Associated KS400 image analyzer (Imaging Associates). Fourteen fields were scored for each sample. Data are presented as goblet cell density, which was defined as the ratio of stained area (μm^2) to length (μm) of epithelium scored. Custom made anti-MUC5B monoclonal antibodies were obtained from the Hybridoma Core Laboratory, University of Florida and were raised against the peptide SWYNGHRPEPGLG (SEQ ID NO:11).

ErbB3 = ErbB3 (Homo sapiens, UniProt P21860); conditions: higher affinity than NRG1a; cited from earlier work
ErbB2/ErbB3 heterodimer = ErbB2/ErbB3 heterodimer (Homo sapiens, UniProt P21860); conditions: greater affinity than for ErbB3 homodimers; cited from earlier work
[2] = system: Human Bronchial Epithelial Cells (HBECs); experiment: Inhibition of NRG1β1-induced goblet cell formation (MUC5AC and MUC5B protein by histology) in HBECs; format: cell-based; conditions: inhibitor at 10 μM, NRG1β1 50 nM, 7 days at ALI
Experimental: as §1, with “Cells were treated with NRG1α or NRG1β1 (R&D SYSTEMS®) during the ALI culture period, added to the basolateral chamber of the TRANSWELL® inserts. At all stages cells were maintained at 37° C. in the presence of 5% CO2 in an air incubator.” left out
After 7 days (unless otherwise stated) of differentiation at ALI, the apical surface of the HBECs was washed gently with PBS and fixed with neutral buffered formalin and wax embedded. […] The area of staining was assessed using a ZEISS® Axioplan 2 microscope (×10 magnification) with an Imaging Associated KS400 image analyzer (Imaging Associates). Fourteen fields were scored for each sample. Data are presented as goblet cell density, which was defined as the ratio of stained area (μm^2) to length (μm) of epithelium scored. […]

Sequence of ErbB3 (P21860 20-1342): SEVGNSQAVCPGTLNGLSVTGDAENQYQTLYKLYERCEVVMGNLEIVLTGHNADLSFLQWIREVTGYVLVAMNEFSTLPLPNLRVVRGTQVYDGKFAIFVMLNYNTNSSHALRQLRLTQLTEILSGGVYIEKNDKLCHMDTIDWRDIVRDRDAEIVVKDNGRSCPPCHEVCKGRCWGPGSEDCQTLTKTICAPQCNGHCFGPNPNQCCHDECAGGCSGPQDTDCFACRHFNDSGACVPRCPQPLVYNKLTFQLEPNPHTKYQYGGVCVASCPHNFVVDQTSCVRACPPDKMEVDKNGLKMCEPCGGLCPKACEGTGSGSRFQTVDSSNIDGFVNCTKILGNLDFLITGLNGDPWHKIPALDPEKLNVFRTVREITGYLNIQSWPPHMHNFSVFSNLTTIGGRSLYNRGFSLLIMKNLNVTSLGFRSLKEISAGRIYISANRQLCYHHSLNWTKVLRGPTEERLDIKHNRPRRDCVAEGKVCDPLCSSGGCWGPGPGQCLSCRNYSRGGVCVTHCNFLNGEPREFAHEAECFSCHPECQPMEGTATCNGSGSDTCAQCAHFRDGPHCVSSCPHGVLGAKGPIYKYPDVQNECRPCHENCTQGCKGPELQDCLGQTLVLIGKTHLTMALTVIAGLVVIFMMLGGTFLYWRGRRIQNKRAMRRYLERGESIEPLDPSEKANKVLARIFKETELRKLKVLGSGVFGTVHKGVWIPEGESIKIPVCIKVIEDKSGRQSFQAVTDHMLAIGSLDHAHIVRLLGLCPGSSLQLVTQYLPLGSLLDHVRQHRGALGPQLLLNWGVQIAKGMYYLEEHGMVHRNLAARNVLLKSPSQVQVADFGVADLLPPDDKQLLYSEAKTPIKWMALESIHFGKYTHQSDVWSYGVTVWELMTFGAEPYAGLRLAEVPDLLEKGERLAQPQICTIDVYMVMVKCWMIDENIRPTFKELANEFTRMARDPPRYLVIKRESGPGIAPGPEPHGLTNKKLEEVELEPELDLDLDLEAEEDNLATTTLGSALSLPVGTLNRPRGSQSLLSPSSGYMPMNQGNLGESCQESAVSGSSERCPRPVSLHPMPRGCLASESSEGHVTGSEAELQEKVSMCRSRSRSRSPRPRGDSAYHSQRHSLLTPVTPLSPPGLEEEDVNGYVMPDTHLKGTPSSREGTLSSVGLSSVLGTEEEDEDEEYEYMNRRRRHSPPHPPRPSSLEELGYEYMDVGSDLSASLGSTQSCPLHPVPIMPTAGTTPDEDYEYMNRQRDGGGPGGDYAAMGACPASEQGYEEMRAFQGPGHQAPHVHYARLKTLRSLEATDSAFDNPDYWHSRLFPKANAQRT

Row | Compound | increase in MUC5AC protein over vehicle levels ([1]; 50 nM, histology) [fold] | increase in MUC5B protein ([1]; 50 nM, immunohistochemistry) [fold] | effect on MUC5AC protein ([1]; increasing concentrations, histology) | affinity for ErbB3 relative to NRG1a (ErbB3) [fold] | affinity for the ErbB2/ErbB3 heterodimer relative to ErbB3 homodimers (ErbB2/ErbB3 heterodimer) [fold] | effect on NRG1β1-induced increase in MUC5AC protein [2] | effect on NRG1β1-induced increase in MUC5B protein [2]
1 | NRG1β1: Neuregulin-1 isoform β1 protein (R&D SYSTEMS) added to HBEC cultures | 3 | 9.8 | dose-dependent increase | 100 | 100 |  | 
2 | CCN1CCN(Cc2ccc(-c3cc4c(N[C@H](C)c5ccccc5)ncnc4[nH]3)cc2)CC1 [pan-ErbB receptor inhibitor] |  |  |  |  |  | significantly inhibited | significantly inhibited

Reference: patent US8658165B2, “Method of treating aberrant mucus production in respiratory disease” (Novartis AG, priority 2007, dated 2014)
